{"source": "patent US5486516A", "about": "“Furopyrimidine derivatives” (DowElanco, priority 1993, dated 1996)", "data": [{"test_system": "Pyricularia oryzae (rice blast)", "test": "whole plant or invertebrate", "type": "in vivo", "conditions": "foliar, read-out: RICE BLAST control rating", "units": {"pest or weed control at 400 µg/mL": "%"}, "values": [{"compound": "COc1ccc(CCn2cnc3oc(C)c(C)c3c2=N)cc1", "note": "[Example 80, 3-[2-(4-methoxyphenyl)ethyl]-5,6-dimethylfuro[2,3-d]pyrimidin-4(3H)-imine]", "pest or weed control at 400 µg/mL": "0 to 19"}, {"compound": "COc1ccccc1CCNc1ncnc2occ(C)c12", "note": "[Example 35, 5-methyl-N-[2,(2-methoxyphenyl)ethyl]furo[2,3-d]pyrimidin-4-amine]", "pest or weed control at 400 µg/mL": "0 to 19"}, {"compound": "Cc1oc2ncnc(Oc3ccc(C#N)cc3)c2c1C", "note": "[Example 36, 4-[(5,6-dimethylfuro[2,3-d]pyrimidin-4-yl)oxy]benzonitrile]", "pest or weed control at 400 µg/mL": "0 to 19"}]}, {"test_system": "Southern corn rootworm (Diabrotica undecimpuctata howardi Barber)", "test": "Mite/insect screen, corn rootworm", "type": "in vivo", "conditions": "Diabrotica; CRW rate 12.00 ppm, soil; read-out: CRW results (percent mortality)", "method": "(§1) The compounds of Examples were tested for miticidal and insecticidal activity in the following mite/insect screen.\n(§2) Each test compound was formulated by dissolving the compound in acetone/alcohol (50:50) mixture containing 23 g of \"TOXIMUL R\" (sulfonate/nonionic emulsifier blend) and 13 g of \"TOXIMUL S\" (sulfonate/nonionic emulsifier blend) per liter. These mixtures were then diluted with water to give the indicated concentrations.\n(§3) Activity on Southern corn rootworm (Diabrotica undecimpuctata howardi Barber) was evaluated by adding two ml of tap water, a presoaked corn seed, and 15 g of dry sandy soil to a one ounce plastic container. The soil was treated with 1 mL of test solution containing a predetermined concentration of test compound. After six to 12 hours of drying, five 2-3 instar corn rootworm larvae were added to the individual cups, which were then capped and held at 23° C.\n(§4) After standard exposure periods, percent mortality and phytotoxicity were evaluated. […] The following abbreviations are used in Table 3:\n(§5) CRW refers to corn rootworm", "units": {"mortality at 12 ppm": "%"}, "values": [{"compound": "COc1ccc(CCn2cnc3oc(C)c(C)c3c2=N)cc1", "note": "[Example 80, 3-[2-(4-methoxyphenyl)ethyl]-5,6-dimethylfuro[2,3-d]pyrimidin-4(3H)-imine]", "mortality at 12 ppm": 0}, {"compound": "COc1ccccc1CCNc1ncnc2occ(C)c12", "note": "[Example 35, 5-methyl-N-[2,(2-methoxyphenyl)ethyl]furo[2,3-d]pyrimidin-4-amine]", "mortality at 12 ppm": 0}, {"compound": "Cc1oc2ncnc(Oc3ccc(C#N)cc3)c2c1C", "note": "[Example 36, 4-[(5,6-dimethylfuro[2,3-d]pyrimidin-4-yl)oxy]benzonitrile]", "mortality at 12 ppm": 0}]}, {"test_system": "Southern corn rootworm (Diabrotica undecimpuctata howardi Barber)", "test": "Mite/insect screen, corn rootworm", "type": "in vivo", "conditions": "Diabrotica; CRW rate 24.00 ppm, soil; read-out: CRW results (percent mortality)", "method": "as §1, §2, §3, §4, §5", "units": {"mortality at 24 ppm": "%"}, "values": [{"compound": "COc1ccc(CCn2cnc3oc(C)c(C)c3c2=N)cc1", "note": "[Example 80, 3-[2-(4-methoxyphenyl)ethyl]-5,6-dimethylfuro[2,3-d]pyrimidin-4(3H)-imine]", "mortality at 24 ppm": 0}, {"compound": "COc1ccccc1CCNc1ncnc2occ(C)c12", "note": "[Example 35, 5-methyl-N-[2,(2-methoxyphenyl)ethyl]furo[2,3-d]pyrimidin-4-amine]", "mortality at 24 ppm": 0}, {"compound": "Cc1oc2ncnc(Oc3ccc(C#N)cc3)c2c1C", "note": "[Example 36, 4-[(5,6-dimethylfuro[2,3-d]pyrimidin-4-yl)oxy]benzonitrile]", "mortality at 24 ppm": 0}]}, {"test_system": "southern armyworm (Spodopetra eridania Cramer)", "test": "Mite/insect screen, Southern armyworm", "type": "in vivo", "conditions": "Spodoptera eridania; rate 200 ppm, sprayed leaves; read-out: SAW results (percent mortality)", "method": "as §1, §2\n(§6) Twospotted spider mites (Tetranychus urticae Koch) and melon aphids (Aphis gossvpii Glover) were introduced on squash cotyledons and allowed to establish on both leaf surfaces. Other plants in the same treatment pot were left uninfested. The leaves were then sprayed with 5 ml of test solution using a DeVilbiss atomizing sprayer at 10 psi. Both surfaces of the leaves were covered until runoff, and then allowed to dry for one hour. Two uninfested leaves were then excised and placed into a Petri dish containing larval southern armyworm (Spodopetra eridania Cramer).\nas §4\n(§7) SAW refers to Southern armyworm", "units": {"mortality at 200 ppm": "%"}, "values": [{"compound": "COc1ccc(CCn2cnc3oc(C)c(C)c3c2=N)cc1", "note": "[Example 80, 3-[2-(4-methoxyphenyl)ethyl]-5,6-dimethylfuro[2,3-d]pyrimidin-4(3H)-imine]", "mortality at 200 ppm": 0}, {"compound": "COc1ccccc1CCNc1ncnc2occ(C)c12", "note": "[Example 35, 5-methyl-N-[2,(2-methoxyphenyl)ethyl]furo[2,3-d]pyrimidin-4-amine]", "mortality at 200 ppm": 0}, {"compound": "Cc1oc2ncnc(Oc3ccc(C#N)cc3)c2c1C", "note": "[Example 36, 4-[(5,6-dimethylfuro[2,3-d]pyrimidin-4-yl)oxy]benzonitrile]", "mortality at 200 ppm": 0}]}, {"test_system": "southern armyworm (Spodopetra eridania Cramer)", "test": "Mite/insect screen, Southern armyworm", "type": "in vivo", "conditions": "Spodoptera eridania; rate 400 ppm, sprayed leaves; read-out: SAW results (percent mortality)", "method": "as §1, §2, §6, §4, §7", "units": {"mortality at 400 ppm": "%"}, "values": [{"compound": "COc1ccc(CCn2cnc3oc(C)c(C)c3c2=N)cc1", "note": "[Example 80, 3-[2-(4-methoxyphenyl)ethyl]-5,6-dimethylfuro[2,3-d]pyrimidin-4(3H)-imine]", "mortality at 400 ppm": 0}, {"compound": "COc1ccccc1CCNc1ncnc2occ(C)c12", "note": "[Example 35, 5-methyl-N-[2,(2-methoxyphenyl)ethyl]furo[2,3-d]pyrimidin-4-amine]", "mortality at 400 ppm": 0}, {"compound": "Cc1oc2ncnc(Oc3ccc(C#N)cc3)c2c1C", "note": "[Example 36, 4-[(5,6-dimethylfuro[2,3-d]pyrimidin-4-yl)oxy]benzonitrile]", "mortality at 400 ppm": 0}]}, {"test_system": "Twospotted spider mites (Tetranychus urticae Koch)", "test": "Mite/insect screen, twospotted spider mites", "type": "in vivo", "conditions": "Tetranychus urticae, rate 200 ppm, sprayed leaves; read-out: SM results (percent mortality)", "method": "as §1, §2, §6, §4\n(§8) SM refers to twospotted spider mites", "units": {"mortality at 200 ppm": "%"}, "values": [{"compound": "COc1ccc(CCn2cnc3oc(C)c(C)c3c2=N)cc1", "note": "[Example 80, 3-[2-(4-methoxyphenyl)ethyl]-5,6-dimethylfuro[2,3-d]pyrimidin-4(3H)-imine]", "mortality at 200 ppm": 0}, {"compound": "COc1ccccc1CCNc1ncnc2occ(C)c12", "note": "[Example 35, 5-methyl-N-[2,(2-methoxyphenyl)ethyl]furo[2,3-d]pyrimidin-4-amine]", "mortality at 200 ppm": 0}, {"compound": "Cc1oc2ncnc(Oc3ccc(C#N)cc3)c2c1C", "note": "[Example 36, 4-[(5,6-dimethylfuro[2,3-d]pyrimidin-4-yl)oxy]benzonitrile]", "mortality at 200 ppm": 0}]}, {"test_system": "Twospotted spider mites (Tetranychus urticae Koch)", "test": "Mite/insect screen, twospotted spider mites", "type": "in vivo", "conditions": "Tetranychus urticae, rate 400 ppm, sprayed leaves; read-out: SM results (percent mortality)", "method": "as §1, §2, §6, §4, §8", "units": {"mortality at 400 ppm": "%"}, "values": [{"compound": "COc1ccc(CCn2cnc3oc(C)c(C)c3c2=N)cc1", "note": "[Example 80, 3-[2-(4-methoxyphenyl)ethyl]-5,6-dimethylfuro[2,3-d]pyrimidin-4(3H)-imine]", "mortality at 400 ppm": 0}, {"compound": "COc1ccccc1CCNc1ncnc2occ(C)c12", "note": "[Example 35, 5-methyl-N-[2,(2-methoxyphenyl)ethyl]furo[2,3-d]pyrimidin-4-amine]", "mortality at 400 ppm": 0}, {"compound": "Cc1oc2ncnc(Oc3ccc(C#N)cc3)c2c1C", "note": "[Example 36, 4-[(5,6-dimethylfuro[2,3-d]pyrimidin-4-yl)oxy]benzonitrile]", "mortality at 400 ppm": 0}]}, {"test_system": "melon aphids (Aphis gossvpii Glover)", "test": "Mite/insect screen, melon aphids", "type": "in vivo", "conditions": "Aphis; rate 200 ppm, sprayed leaves; read-out: MA results (percent mortality)", "method": "as §1, §2, §6, §4\n(§9) MA refers to melon aphids.", "units": {"mortality at 200 ppm": "%"}, "values": [{"compound": "COc1ccc(CCn2cnc3oc(C)c(C)c3c2=N)cc1", "note": "[Example 80, 3-[2-(4-methoxyphenyl)ethyl]-5,6-dimethylfuro[2,3-d]pyrimidin-4(3H)-imine]", "mortality at 200 ppm": 0}, {"compound": "COc1ccccc1CCNc1ncnc2occ(C)c12", "note": "[Example 35, 5-methyl-N-[2,(2-methoxyphenyl)ethyl]furo[2,3-d]pyrimidin-4-amine]", "mortality at 200 ppm": 0}, {"compound": "Cc1oc2ncnc(Oc3ccc(C#N)cc3)c2c1C", "note": "[Example 36, 4-[(5,6-dimethylfuro[2,3-d]pyrimidin-4-yl)oxy]benzonitrile]", "mortality at 200 ppm": 0}]}, {"test_system": "melon aphids (Aphis gossvpii Glover)", "test": "Mite/insect screen, melon aphids", "type": "in vivo", "conditions": "Aphis; rate 400 ppm, sprayed leaves; read-out: MA results (percent mortality)", "method": "as §1, §2, §6, §4, §9", "units": {"mortality at 400 ppm": "%"}, "values": [{"compound": "COc1ccc(CCn2cnc3oc(C)c(C)c3c2=N)cc1", "note": "[Example 80, 3-[2-(4-methoxyphenyl)ethyl]-5,6-dimethylfuro[2,3-d]pyrimidin-4(3H)-imine]", "mortality at 400 ppm": 0}, {"compound": "COc1ccccc1CCNc1ncnc2occ(C)c12", "note": "[Example 35, 5-methyl-N-[2,(2-methoxyphenyl)ethyl]furo[2,3-d]pyrimidin-4-amine]", "mortality at 400 ppm": 30}, {"compound": "Cc1oc2ncnc(Oc3ccc(C#N)cc3)c2c1C", "note": "[Example 36, 4-[(5,6-dimethylfuro[2,3-d]pyrimidin-4-yl)oxy]benzonitrile]", "mortality at 400 ppm": 0}]}, {"test_system": "Puccinia recondita tritici (leaf rust)", "test": "Plant pathology screen (Test 1), leaf rust on wheat", "conditions": "in Triticum aestivum, foliar, read-out: LEAF RUST control rating", "units": {"pest or weed control at 400 µg/mL": "%"}, "values": [{"compound": "COc1ccc(CCn2cnc3oc(C)c(C)c3c2=N)cc1", "note": "[Example 80, 3-[2-(4-methoxyphenyl)ethyl]-5,6-dimethylfuro[2,3-d]pyrimidin-4(3H)-imine]", "pest or weed control at 400 µg/mL": "0 to 19"}, {"compound": "COc1ccccc1CCNc1ncnc2occ(C)c12", "note": "[Example 35, 5-methyl-N-[2,(2-methoxyphenyl)ethyl]furo[2,3-d]pyrimidin-4-amine]", "pest or weed control at 400 µg/mL": "90 to 100"}, {"compound": "Cc1oc2ncnc(Oc3ccc(C#N)cc3)c2c1C", "note": "[Example 36, 4-[(5,6-dimethylfuro[2,3-d]pyrimidin-4-yl)oxy]benzonitrile]", "pest or weed control at 400 µg/mL": "0 to 19"}]}, {"test_system": "Pseudoperonospora cubensis (downy mildew)", "test": "Plant pathology screen (Test 1), downy mildew on squash", "conditions": "foliar, read-out: DOWN MDEW control rating", "units": {"pest or weed control at 400 µg/mL": "%"}, "values": [{"compound": "COc1ccccc1CCNc1ncnc2occ(C)c12", "note": "[Example 35, 5-methyl-N-[2,(2-methoxyphenyl)ethyl]furo[2,3-d]pyrimidin-4-amine]", "pest or weed control at 400 µg/mL": "20 to 89"}, {"compound": "Cc1oc2ncnc(Oc3ccc(C#N)cc3)c2c1C", "note": "[Example 36, 4-[(5,6-dimethylfuro[2,3-d]pyrimidin-4-yl)oxy]benzonitrile]", "pest or weed control at 400 µg/mL": "0 to 19"}]}, {"test_system": "Erysiphe graminis tritici (powdery mildew)", "test": "Plant pathology screen (Test 1), powdery mildew on wheat", "conditions": "Blumeria graminis, in Triticum aestivum, foliar, read-out: POWD MDEW control rating", "units": {"pest or weed control at 400 µg/mL": "%"}, "values": [{"compound": "COc1ccc(CCn2cnc3oc(C)c(C)c3c2=N)cc1", "note": "[Example 80, 3-[2-(4-methoxyphenyl)ethyl]-5,6-dimethylfuro[2,3-d]pyrimidin-4(3H)-imine]", "pest or weed control at 400 µg/mL": "0 to 19"}, {"compound": "COc1ccccc1CCNc1ncnc2occ(C)c12", "note": "[Example 35, 5-methyl-N-[2,(2-methoxyphenyl)ethyl]furo[2,3-d]pyrimidin-4-amine]", "pest or weed control at 400 µg/mL": "0 to 19"}, {"compound": "Cc1oc2ncnc(Oc3ccc(C#N)cc3)c2c1C", "note": "[Example 36, 4-[(5,6-dimethylfuro[2,3-d]pyrimidin-4-yl)oxy]benzonitrile]", "pest or weed control at 400 µg/mL": "0 to 19"}]}, {"test_system": "Botrytis cinerea (gray mold)", "test": "Plant pathology screen (Test 1), gray mold on grape berries", "conditions": "read-out: GRAY MOLD control rating", "units": {"pest or weed control at 400 µg/mL": "%"}, "values": [{"compound": "COc1ccc(CCn2cnc3oc(C)c(C)c3c2=N)cc1", "note": "[Example 80, 3-[2-(4-methoxyphenyl)ethyl]-5,6-dimethylfuro[2,3-d]pyrimidin-4(3H)-imine]", "pest or weed control at 400 µg/mL": "0 to 19"}]}]}
